Data on six compounds can be found in US11643429B2, “Compounds and methods for the treatment of ocular disorders” (Azura Ophthalmics Ltd., priority 2019, dated 2023).

Series [1] can be described thus: Rabbit Cornea Homogenate Stability Assay (Rabbit Cornea Esterase Assay). It is filed as in vitro ADME. The note with it: New Zealand White, 37° C., half-life of parent conjugate. The protocol: Determining Rabbit Cornea Homogenate stability of the test compounds was performed using HPLC-MS. The assay was performed at two concentrations of Rabbit Cornea Homogenate (0.15 mg/ml and 0.45 mg/ml total protein) so that any hydrolysis observed could be assigned as esterase dependent or not.
Five rabbit corneas (e.g. New Zealand Whites) of approx. 50 mg each were sliced and scraped with a scalpel and tweezers until reduced to small (1-3 mm), thin pieces. These were transferred into a tared vial and accurately weighed, then diluted with 10 volumes aqueous PBS pH7.4
Sample was cooled intermittently on ice and shear homogenized for 3 minutes, then centrifuged for 3 min at 3000 rpm. The supernatant was pipetted off into a vial, and total protein concentration determined at 280 nm. Sample was stored at −78° C.
10 mM Compound stocks were diluted to 100 μM in a 96 deep-well plate: 10 μl of 10 mM Compound stock was added to 990 μl 50 mM HEPES, pH7.5 buffer.
Compounds were further diluted to 10 μM: 100 μl of 100 μM compound was added to 900 μl 50 mM HEPES, pH7.5 buffer.
Esterase homogenate was diluted to 300 ng/μl and 900 ng/μl
A heater shaker was set to 37° C. Into a suitable 96 well plate (Run Plate), 75 μl of 300 or 900 ng/μl esterase homogenate was pipetted into each of the required wells (2 min, 5 min, 10 min, 20 min and 45 min). The plate was sealed and then warmed at 37° C. for 5 min. Another 96 well PCR plate was put on ice (Kill Plate). To this was added 100 μl of MeCN to each well, labelled 0 min 2 min, 5 min, 10 min, 20 min and 45 min. The plate was covered to minimise evaporation. For the T=0 sample only, to the 100 μl cold MeCN stop solution was added 50 μl of 300 or 900 ng/μl esterase homogenate followed by 50 μl of 10 μM compound solution For the remaining timepoints, 75 μl of 10 μM compound solution was added to the Run Plate starting from T=45 min row and ending with T=2 min row. At the appropriate time point, 100 μl of the assay mixture was added to the matching kill plate well containing 100 μl of cold MeCN. Samples were analysed as soon as practicable by LCMS (Waters Xevo TQ-S or Micromass Ultima). Parent conjugate and parent concentrations were determined against appropriate standard response curves and the half-life (T1/2) of the parent conjugate was calculated using the peak area of the parent conjugate at each time point in the linear region of the log-linear plot.

Series [2] in a line: Aqueous Hydrolysis Stability Assay. It is filed as physicochemical. The note with it: 50 mM HEPES buffer pH 7.5; HEPES pH 7.5, room temperature; read-out: T1/2 Aq Stability. The procedure:
Determination of aqueous stability of the test compounds was performed using HIPLC-MS. A test compound 10 mM stock solution was prepared in DMSO. 10 μl of the DMSO stock solution was dissolved in 990 μl of 50 mM HEPES pH 7.5 buffer or 1:1 (v/v) of Acetonitrile:Water to make a 100 μM solution. Final DMSO concentration was 1%. The solution was kept at room temperature and injected without delay into the LCMS (Waters Xevo TQ-S or Micromass Ultima). Additional injections were performed at appropriate time points. Half-life (T1/2) of the parent conjugate was calculated using the peak area of the parent conjugate at each time point in the linear region of the log-linear plot.

A short description of series [3]: Aqueous Hydrolysis Stability Assay. It is filed as physicochemical. The note with it: New Zealand White, rabbit, rabbit cornea homogenate (esterase assay) in HEPES buffer, pH 7.5; ND, estimated from esterase assay; read-out: T1/2 Aq Stability.
[4] abbreviates: pH 7.5, Rabbit Cornea Homogenate 0.15 mg/ml total protein, read-out: T1/2 Esterase (min) (0.15 mg/ml Homogenate).
[5] abbreviates: pH 7.5, Rabbit Cornea Homogenate 0.45 mg/ml total protein, read-out: T1/2 Esterase (min) (0.45 mg/ml Homogenate).

As to `CC[C@H]1OC(=O)[C@H](C)[C@@H](O[C@H]2C[C@@](C)(OC)[C@@H](O)[C@H](C)O2)[C@H](C)[C@@H](O[C@@H]2O[C@H](C)C[C@H](N(C)C)[C@H]2OC(=O)CCOCCOCCOCCOCCO)[C@](C)(O)C[C@@H](C)CN(C)[C@H](C)[C@@H](O)[C@]1(C)O` [Compound 5, (2S,3R,4S,6R)-4-(Dimethylamino)-2-(((2R,3S,4R,5R,8R,10R,11R,12S,13S,14R)-2-ethyl-3,4,10-trihydroxy-13-(((2R,4R,5S,6S)-5-hydroxy-4-methoxy-4,6-dimethyltetrahydro-2H-pyran-2-yl)oxy)-3,5,6,8,10,12,14-heptamethyl-15-oxo-1-oxa-6-azacyclopentadecan-11-yl)oxy)-6-methyltetrahydro-2H-pyran-3-yl 1-hydroxy-3,6,9,12-tetraoxapentadecan-15-oate], the half-life at 5 µM came to 21 min in series [1] (setting [4]) and 24 min in series [1] (setting [5]). Also, the half-life at 100 µM in series [2] is 1.2 h.

Turning to `CC[C@H]1OC(=O)[C@H](C)[C@@H](O[C@H]2C[C@@](C)(OC)[C@@H](O)[C@H](C)O2)[C@H](C)[C@@H](O[C@@H]2O[C@H](C)C[C@H](N(C)C)[C@H]2OC(=O)O[C@H](C)C(=O)OC)[C@](C)(O)C[C@@H](C)CN(C)[C@H](C)[C@@H](O)[C@]1(C)O` [Compound 10, Methyl (R)-2-(((((2S,3R,4S,6R)-4-(dimethylamino)-2-(((2R,3S,4R,5R,8R,10R,11R,12S,13S,14R)-2-ethyl-3,4,10-trihydroxy-13-(((2R,4R,5S,6S)-5-hydroxy-4-methoxy-4,6-dimethyltetrahydro-2H-pyran-2-yl)oxy)-3,5,6,8,10,12,14-heptamethyl-15-oxo-1-oxa-6-azacyclopentadecan-11-yl)oxy)-6-methyltetrahydro-2H-pyran-3-yl)oxy)carbonyl)oxy)propanoate], the figures for the half-life at 5 µM in series [1] (setting [4]), in series [1] (setting [5]) and in series [3] were 53 min, 49 min and ~0.85 h, respectively.

On to `CC[C@H]1OC(=O)[C@H](C)[C@@H](O[C@H]2C[C@@](C)(OC)[C@@H](O)[C@H](C)O2)[C@H](C)[C@@H](O[C@@H]2O[C@H](C)C[C@H](N(C)C)[C@H]2O)[C@](C)(O)C[C@@H](C)CN(C)[C@H](C)[C@@H](OC(=O)CO)[C@]1(C)O` [Compound 11, (2R,3R,4R,5R,8R,10R,11R,12S,13S,14R)-11-(((2S,3R,4S,6R)-4-(Dimethylamino)-3-hydroxy-6-methyltetrahydro-2H-pyran-2-yl)oxy)-2-ethyl-3,10-dihydroxy-3-(((2R,4R,5S,6S)-5-hydroxy-4-methoxy-4,6-dimethyltetrahydro-2H-pyran-2-yl)oxy)-3,5,6,8,10,12,14-heptamethyl-15-oxo-1-oxa-6-azacyclopentadecan-4-yl 2-hydroxyacetate], for which the half-life at 5 µM in series [1] (setting [4]) and in series [1] (setting [5]) was > 120 min each time. Further, the half-life at 100 µM in series [2] is > 2 h.

`CC[C@H]1OC(=O)[C@H](C)[C@@H](O[C@H]2C[C@@](C)(OC)[C@@H](O)[C@H](C)O2)[C@H](C)[C@@H](O[C@@H]2O[C@H](C)C[C@H](N(C)C)[C@H]2O)[C@](C)(O)C[C@@H](C)CN(C)[C@H](C)[C@@H](OC(C)=O)[C@]1(C)O` [Compound 12, (2R,3R,4R,5R,8R,10R,11R,12S,13S,14R)-11-(((2S,3R,4S,6R)-4-(Dimethylamino)-3-hydroxy-6-methyltetrahydro-2H-pyran-2-yl)oxy)-2-ethyl-3,10-dihydroxy-13-(((2R,4R,5S,6S)-5-hydroxy-4-methoxy-4,6-dimethyltetrahydro-2H-pyran-2-yl)oxy)-3,5,6,8,10,12,14-heptamethyl-15-oxo-1-oxa-6-azacyclopentadecan-4-yl acetate]: the half-life at 5 µM in series [1] (setting [4]) and in series [1] (setting [5]) was > 120 min throughout. Moreover, in series [2], the half-life at 100 µM was > 2 h.

Regarding `CC[C@H]1OC(=O)[C@H](C)[C@@H](O[C@H]2C[C@@](C)(OC)[C@@H](OC(C)=O)[C@H](C)O2)[C@H](C)[C@@H](O[C@@H]2O[C@H](C)C[C@H](N(C)C)[C@H]2O)[C@](C)(O)C[C@@H](C)CN(C)[C@H](C)[C@@H](O)[C@]1(C)O` [Compound 13, (2S,3S,4R,6R)-6-(((2R,3S,4R,5R,8R,10R,11R,12S,13S,14R)-11-(((2S,3R,4S,6R)-4-(Dimethylamino)-3-hydroxy-6-methyltetrahydro-2H-pyran-2-yl)oxy)-2-ethyl-3,4,10-trihydroxy-3,5,6,8,10,12,14-heptamethyl-15-oxo-1-oxa-6-azacyclopentadecan-13-yl)oxy)-4-methoxy-2,4-dimethyltetrahydro-2H-pyran-3-yl acetate], the half-life at 5 µM in series [1] (setting [4]) and in series [1] (setting [5]) was > 120 min in each case. In addition, in series [2], the half-life at 100 µM is > 2 h.

As for `CC[C@H]1OC(=O)[C@H](C)[C@@H](O[C@H]2C[C@@](C)(OC)[C@@H](O)[C@H](C)O2)[C@H](C)[C@@H](O[C@@H]2O[C@H](C)C[C@H](N(C)C)[C@H]2OC(=O)SC[C@H](NC(C)=O)C(=O)OC)[C@](C)(O)C[C@@H](C)CN(C)[C@H](C)[C@@H](O)[C@]1(C)O` [Compound 14, Methyl N-acetyl-S-((((2S,3R,4S,6R)-4-(dimethylamino)-2-(((2R,3S,4R,5R,8R,10R,11R,12S,13S,14R)-2-ethyl-3,4,10-trihydroxy-13-(((2R,4R,5S,6S)-5-hydroxy-4-methoxy-4,6-dimethyltetrahydro-2H-pyran-2-yl)oxy)-3,5,6,8,10,12,14-heptamethyl-15-oxo-1-oxa-6-azacyclopentadecan-11-yl)oxy)-6-methyltetrahydro-2H-pyran-3-yl)oxy)carbonyl)-L-cysteinate], the half-life at 5 µM in series [1] (setting [4]) and in series [1] (setting [5]) was > 120 min in each case. For the same compound, in series [2], the half-life at 100 µM was > 2 h.
